Data published in patent publication EP0095292A1, “5-(2-halogenovinyl)-2'-deoxyuridine derivatives, processes for their preparation, pharmaceutical compositions containing them, and their use in treating viral infections"” (BEECHAM GROUP PLC, priority 1982, dated 1983).
Like-named read-outs stand apart in the source and are kept apart here.

Columns and labels:
[1] = Cytotoxicity observed in the plaque reduction assay cultures; format: cell-based; settings: african green monkey, vero cells; minimum concentration of test compound which caused cytotoxicity; virus-infected Vero cultures, 4 days; read-out: MTD
Method: (§1) Vero (African Green Monkey Kidney) cells were grown to confluence in 24 well multidishes, each well being 1.6 cm in diameter. The cells were infected with Herpes simplex type 1 virus (HFEM strain) and overlaid with 0.5 mL of 0.9% agarose (w/v) in maintenance medium. Test compounds prepared in maintenance medium in concentrations ranging from […] in half-log dilution steps, were added in 0.5 mL volume. The virus infected cultures were then incubated at 37^0CC for 4 days before fixing in 4% formaldehyde solution and staining with carbolfuchsin.

[2] = system: Herpes simplex type 1 virus (HFEM strain); experiment: Plaque reduction assay in virus-infected Vero cells (agarose overlay, 4 days); format: cell-based; settings: Human alphaherpesvirus 1, 96 h, concentration causing a 50% reduction in the number of virus plaques, 4 days incubation, read-out: PDD50 (the source's name)
Method: as §1

Compound | MCC at 96 h [1] [µg/mL] | IC50 ([2]; molar units) [nM] | IC50 [2] [µg/mL]
CC(=O)O[C@H]1C[C@H](n2cc(/C=C/Br)c(=O)[nH]c2=O)O[C@@H]1COC(=O)OC[C@H]1O[C@@H](n2cc(/C=C/Br)c(=O)[nH]c2=O)C[C@@H]1OC(C)=O [Example 3, bis-[3'-O-Acetyl-5-(E-2-bromovinyl)-2'-deoxyuridin-5'-yl] carbonate] | 100 | 10900 | 8.5
O=C(CCCCCCCCC(=O)OC[C@H]1O[C@@H](n2cc(/C=C/Br)c(=O)[nH]c2=O)C[C@@H]1O)OC[C@H]1O[C@@H](n2cc(/C=C/Br)c(=O)[nH]c2=O)C[C@@H]1O [Example 7, bis-[5-(E-2-Bromovinyl)-2'-deoxyuridin-5'-yl] sebacate] | 100 | 140 | 0.12
CC(=O)O[C@H]1C[C@H](n2cc(/C=C/Br)c(=O)[nH]c2=O)O[C@@H]1COC(=O)OC[C@H]1O[C@@H](n2cc(/C=C/Br)c(=O)n(C(C)=O)c2=O)C[C@@H]1OC(C)=O [Example 2, 3',3'-Q-3-Triacetyl-bis-[5-(E-2-bromovinyl)-2'-deoxyuridin-5'-yl] carbonate] | 100 | 15100 | 12.4
O=C(CCC(=O)OC[C@H]1O[C@@H](n2cc(/C=C/Br)c(=O)[nH]c2=O)C[C@@H]1O)OC[C@H]1O[C@@H](n2cc(/C=C/Br)c(=O)[nH]c2=O)C[C@@H]1O [Example 6, bis-[5-(E-2-Bromovinyl)-2'-deoxyuridin-5'-yl] succinate] | 100 | 6400 | 4.8
O=C(OC[C@H]1O[C@@H](n2cc(/C=C/Br)c(=O)[nH]c2=O)C[C@@H]1O)OC[C@H]1O[C@@H](n2cc(/C=C/Br)c(=O)[nH]c2=O)C[C@@H]1O [Example 1, bis-[5-(E-2-Bromovinyl)-2'-deoxyuridin-5'-yl] carbonate] | 100 | 2100 | 1.5
O=C(n1c(=O)c(/C=C/Br)cn([C@H]2C[C@H](O)[C@@H](CO)O2)c1=O)n1c(=O)c(/C=C/Br)cn([C@H]2C[C@H](O)[C@@H](CO)O2)c1=O [Example 5, 3,3-Carbonyl-bis-[5-(E-2-bromovinyl)-2'-deoxyuridine]] | 100 | 100 | 0.07
O=C(O[C@H]1C[C@H](n2cc(/C=C/Br)c(=O)[nH]c2=O)O[C@@H]1CO)O[C@H]1C[C@H](n2cc(/C=C/Br)c(=O)[nH]c2=O)O[C@@H]1CO [Example 4, bis-[5-(E-2-Bromovinyl)-2'-deoxyuridin-3'-yl] carbonate] | 100 | 500 | 0.34
